Source: patent publication US20230416258A1, “BENZ[…], AND PREPARATION METHOD THEREFOR AND USE THEREOF” (CHINA PHARMACEUTICAL UNIVERSITY, priority 2020, published 2023)

System: KM mice
Test: Test for drug-induced disappearance of righting reflex in mice
Format: in vivo
Conditions: single rapid bolus via tail vein
Excerpt: In anesthetic drug experiments, latency generally refers to the time from the start of administration to the loss of consciousness of the subject. The shorter latency is preferred, indicating a rapid onset of action after administration. The duration of anesthesia generally refers to the duration of time from the loss of consciousness to the restoration of consciousness of the subject. The duration of the drug will vary from animal model to animal species. Too long anesthesia may produce adverse cardiovascular and respiratory responses, such as adverse neurological effects to the subject, including sleepiness and dizziness; meanwhile, too short duration of anesthesia may affect the anesthesia effect, causing problems such as increase of anesthesia dosage during the operation.
KM mice (female, 18-25 g) were randomly grouped and subjected to a single administration by rapid bolus via the tail vein. The latency and duration of disappearance of righting reflex in the mice were recorded.

Row | SMILES | Duration (60 mg/kg) | Latency (60 mg/kg) | Duration (30 mg/kg) | Latency (30 mg/kg) | Duration (15 mg/kg) | Latency (15 mg/kg)
1 | COC(=O)CC[C@@H]1N=C(c2ccccc2Cl)c2cc(Cl)ccc2-n2c(SCN3CCOCC3)nnc21 [Compound 99, methyl (S)-3-(8-chloro-6-(2-chlorophenyl)-1-((morpholinomethyl)thio)-4H-benzo[f][1,2,4]triazolo[4,3-a][1,4]diazepin-4-yl)propionate] | 19.37 min | 2.63 min | – | – | – | –
2 | C#CCSc1nnc2n1-c1ccc([N+](=O)[O-])cc1C(c1ccccc1Cl)=N[C@H]2CCC(=O)OC [Compound 80, methyl (S)-3-(8-nitro-6-(2-chlorophenyl)-1-(prop-2-yn-1-ylthio)-4H-benzo[f][1,2,4]triazolo[4,3-a][1,4]diazepin-4-yl)propionate] | 13.57 min | 0.86 min | – | – | – | –
3 | CCSc1nnc2n1-c1ccc(Cl)cc1C(c1ccccc1F)=N[C@H]2CCC(=O)OC [Compound 11, methyl (S)-3-(8-chloro-6-(2-fluorophenyl)-1-(ethylthio)-4H-benzo[f][1,2,4]triazolo[4,3-a][1,4]diazepin-4-yl)propionate] | 7.98 min | 0.83 min | 6.37 min | 0.77 min | – | –
4 | COC(=O)CC[C@@H]1N=C(c2ccccc2Cl)c2cc(Cl)ccc2-n2c(SCOP(=O)(O)O)nnc21 [Compound 111, methyl (S)-3-(8-chloro-6-(2-chlorophenyl)-1-(((phosphonooxy)methyl)thio)-4H-benzo[f][1,2,4]triazolo[4,3-a][1,4]diazepin-4-yl)propionate] | – | – | 18.36 min | 0.67 min | – | –
5 | COC(=O)CC[C@@H]1N=C(c2ccccc2F)c2cc(Br)ccc2-n2c(SCCN(C)C)nnc21 [Compound 134, methyl (S)-3-(8-bromo-6-(2-fluorophenyl)-1-(2-((dimethylamino)ethyl)thio)-4H-benzo[f][1,2,4]triazolo[4,3-a][1,4]diazepin-4-yl)propionate] | – | – | 6.54 min | 0.27 min | – | –
6 | COC(=O)CC[C@@H]1N=C(c2ccccc2Cl)c2cc(Br)ccc2-n2c(SCCN3CCN(C)CC3)nnc21 [Compound 91, methyl (S)-3-(8-bromo-6-(2-chlorophenyl)-1-((2-(4-methylpiperazin-1-yl)ethyl)thio)-4H-benzo[f][1,2,4]triazolo[4,3-a][1,4]diazepin-4-yl)propionate] | – | – | 17.33 min | 1.80 min | – | –
7 | COC(=O)CC[C@@H]1N=C(c2ccccc2Cl)c2cc(Cl)ccc2-n2c(SCCn3cccc3)nnc21 [Compound 140, methyl (S)-3-(8-chloro-6-(2-chlorophenyl)-1-(2-((1H-pyrrol-1-yl)ethyl)thio)-4H-benzo[f][1,2,4]triazolo[4,3-a][1,4]diazepin-4-yl)propionate] | – | – | 21.65 min | 0.45 min | – | –
8 | COC(=O)CC[C@@H]1N=C(c2ccccc2Cl)c2cc([N+](=O)[O-])ccc2-n2c(SC(C)=O)nnc21 [Compound 40, methyl (S)-3-(8-nitro-6-(2-chlorophenyl)-1-(acetylthio)-4H-benzo[f][1,2,4]triazolo[4,3-a][1,4]diazepin-4-yl)propionate] | – | – | 8.94 min | 0.37 min | – | –
9 | COC(=O)CC[C@@H]1N=C(c2ccccc2)c2cc(Br)ccc2-n2c(SC)nnc21 [Compound 103, methyl (S)-3-(8-bromo-1-(methylthio)-6-phenyl-4H-benzo[f][1,2,4]triazolo[4,3-a][1,4]diazepin-4-yl)propionate] | – | – | 14.42 min | 0.74 min | – | –
10 | COC(=O)CC[C@@H]1N=C(c2ccccc2Cl)c2cc(Cl)ccc2-n2c(SCc3ccncc3)nnc21 [Compound 124, methyl (S)-3-(8-chloro-6-(2-chlorophenyl)-1-(2-((pyridin-4-yl)methyl)thio)-4H-benzo[f][1,2,4]triazolo[4,3-a][1,4]diazepin-4-yl)propionate] | – | – | 13.31 min | 0.23 min | 7.67 min | 0.18 min
11 | CCSc1nnc2n1-c1ccc(Br)cc1C(c1ccccc1F)=N[C@H]2CCC(=O)OC [Compound 12, methyl (S)-3-(8-bromo-6-(2-fluorophenyl)-1-(ethylthio)-4H-benzo[f][1,2,4]triazolo[4,3-a][1,4]diazepin-4-yl)propionate] | – | – | 17.21 min | 0.74 min | – | –
12 | COC(=O)CC[C@@H]1N=C(c2ccccc2Cl)c2cc(Br)ccc2-n2c(SCCN3CCCC3)nnc21 [Compound 121, methyl (S)-3-(8-bromo-6-(2-chlorophenyl)-1-((2-(pyrrolidin-1-yl)ethyl)thio)-4H-benzo[f][1,2,4]triazolo[4,3-a][1,4]diazepin-4-yl)propionate] | 16.67 min | 0.18 min | – | – | – | –
13 | COC(=O)CC[C@@H]1N=C(c2ccccc2F)c2cc([N+](=O)[O-])ccc2-n2c(SCCN3CCN(C)CC3)nnc21 [Compound 62, methyl (S)-3-(8-nitro-6-(2-fluorophenyl)-1-((2-(4-methylpiperazin-1-yl)ethyl)thio)-4H-benzo[f][1,2,4]triazolo[4,3-a][1,4]diazepin-4-yl)propionate] | 10.05 min | 0.86 min | – | – | – | –
14 | COC(=O)CC[C@@H]1N=C(c2ccccc2Cl)c2cc([N+](=O)[O-])ccc2-n2c(SCOP(=O)(O)O)nnc21 [Compound 113, methyl (S)-3-(8-nitro-6-(2-chlorophenyl)-1-(((phosphonooxy)methyl)thio)-4H-benzo[f][1,2,4]triazolo[4,3-a][1,4]diazepin-4-yl)propionate] | 9.49 min | 0.58 min | – | – | – | –
15 | COC(=O)CC[C@@H]1N=C(c2ccccc2Cl)c2cc(Cl)ccc2-n2c(SCCN3CCN(C)CC3)nnc21 [Compound 90, methyl (S)-3-(8-chloro-6-(2-chlorophenyl)-1-((2-(4-methylpiperazin-1-yl)ethyl)thio)-4H-benzo[f][1,2,4]triazolo[4,3-a][1,4]diazepin-4-yl)propionate] | – | – | 15.26 min | 0.67 min | – | –
16 | COC(=O)CC[C@@H]1N=C(c2ccccc2Cl)c2cc(Cl)ccc2-n2c(SCCN3CCC(F)(F)CC3)nnc21 [Compound 127, methyl (S)-3-(8-chloro-6-(2-chlorophenyl)-1-(2-((4,4-difluoropiperidin-1-yl)ethyl)thio)-4H-benzo[f][1,2,4]triazolo[4,3-a][1,4]diazepin-4-yl)propionate] | – | – | 18.11 min | 0.43 min | – | –
17 | CCN(CC)CCSc1nnc2n1-c1ccc(Br)cc1C(c1ccccc1F)=N[C@H]2CCC(=O)OC [Compound 55, methyl (S)-3-(8-bromo-1-((2-(diethylamino)ethyl)thio)-6-(2-fluorophenyl)-4H-benzo[f][1,2,4]triazolo[4,3-a][1,4]diazepin-4-yl)propionate] | – | – | 13.84 min | 0.74 min | – | –
18 | CCCSc1nnc2n1-c1ccc([N+](=O)[O-])cc1C(c1ccccc1Cl)=N[C@H]2CCC(=O)OC [Compound 31, methyl (S)-3-(8-nitro-6-(2-chlorophenyl)-1-(propylthio)-4H-benzo[f][1,2,4]triazolo[4,3-a][1,4]diazepin-4-yl)propionate] | – | – | 8.98 min | 2.85 min | – | –
19 | COC(=O)CC[C@@H]1N=C(c2ccccc2F)c2cc(Cl)ccc2-n2c(SCCO)nnc21 [Compound 17, methyl (S)-3-(8-chloro-6-(2-fluorophenyl)-1-((2-hydroxyethyl)thio)-4H-benzo[f][1,2,4]triazolo[4,3-a][1,4]diazepin-4-yl)propionate] | – | – | 15.35 min | 1.09 min | – | –
20 | COC(=O)CC[C@@H]1N=C(c2ccccc2Cl)c2cc(Cl)ccc2-n2c(SCC3CC3)nnc21 [Compound 75, methyl (S)-3-(8-chloro-6-(2-chlorophenyl)-1-((cyclopropylmethyl)thio)-4H-benzo[f][1,2,4]triazolo[4,3-a][1,4]diazepin-4-yl)propionate] | – | – | 6.53 min | 0.51 min | – | –
21 | COC(=O)CC[C@@H]1N=C(c2ccccc2Cl)c2cc(Br)ccc2-n2c(SC3CCN(C)CC3)nnc21 [Compound 94, methyl (S)-3-(8-bromo-6-(2-chlorophenyl)-1-((1-methylpiperidin-4-yl)thio)-4H-benzo[f][1,2,4]triazolo[4,3-a][1,4]diazepin-4-yl)propionate] | 13.85 min | 0.61 min | – | – | – | –
22 | COC(=O)CC[C@@H]1N=C(c2ccccc2Cl)c2cc(Cl)ccc2-n2c(SCCN3CCCCC3)nnc21 [Compound 122, methyl (S)-3-(8-chloro-6-(2-chlorophenyl)-1-(2-((piperidin-1-yl)ethyl)thio)-4H-benzo[f][1,2,4]triazolo[4,3-a][1,4]diazepin-4-yl)propionate] | – | – | 28.06 min | 0.30 min | – | –
23 | COC(=O)CC[C@@H]1N=C(c2ccccc2F)c2cc(Cl)ccc2-n2c(SC3CCN(C)CC3)nnc21 [Compound 63, methyl (S)-3-(8-chloro-6-(2-fluorophenyl)-1-((1-methylpiperidin-4-yl)thio)-4H-benzo[f][1,2,4]triazolo[4,3-a][1,4]diazepin-4-yl)propionate] | – | – | 15.25 min | 1.23 min | – | –
24 | COC(=O)CC[C@@H]1N=C(c2ccccc2Cl)c2cc(Cl)ccc2-n2c(SC(C)=O)nnc21 [Compound 38, methyl (S)-3-(8-chloro-6-(2-chlorophenyl)-1-(acetylthio)-4H-benzo[f][1,2,4]triazolo[4,3-a][1,4]diazepin-4-yl)propionate] | – | – | 12.94 min | 0.67 min | – | –
25 | COC(=O)CC[C@@H]1N=C(c2ccccc2)c2cc([N+](=O)[O-])ccc2-n2c(SC)nnc21 [Compound 104, methyl (S)-3-(8-nitro-1-(methylthio)-6-phenyl-4H-benzo[f][1,2,4]triazolo[4,3-a][1,4]diazepin-4-yl)propionate] | – | – | 9.78 min | 0.77 min | – | –
